The nature of data set [1]: Molar enthalpy of transition or fusion. The following applies: Crystal; DSC.
For data set [2] the following is noted: Crystal; DTA.

Consider 2 compounds from the NIST ThermoML archive (doi:10.1016/j.jct.2013.07.025).

The structures appear in SMILES notation. ± gives the expanded uncertainty stated by the source.

For `CC(=O)[O-].C[N+](C)(C)CCO` [choline acetate], in data set [1], the “Molar enthalpy of transition or fusion” value was found to be 16.5 ± 1.9 kJ/mol. Further, in data set [2], the Normal melting temperature stood at 67.60 ± 0.96 °C.

Consider `C[N+](C)(C)CCOC(=O)CCC(=O)O.[Cl-]` [hydrogen choline chloride succinate], for which the “Molar enthalpy of transition or fusion” value in data set [1] came to 37.1 ± 2.1 kJ/mol. Also, the Normal melting temperature in data set [2] was 147.40 ± 0.96 °C.
